From patent publication US20080033026A1, “Antimicrobial compositions, methods and systems” (priority 2006, published 2008)

Columns and labels:
Type in all cases: cell-based
[1] = test system: Campylobacter jejuni (ATCC 29428); experiment: Preservative effectiveness on food pathogens (US Pharmacopoeia 23)
Method: The effectiveness of 9-decenoic acid on food pathogens was determined using the protocol on preservative effectiveness found in the US Pharmacopoeia 23, 1995.
Stock cultures of the Listeria monocytogenes (ATCC 1911-1), Salmonella enteritidis (ATCC 13076) and Campylobacter jejuni (ATCC 29428) were transferred for at least three consecutives days on Trypticase Soy Agar (TSA) and incubated at 30-35° C. for 18-24 hours. On the day of the test, the cells were washed from the agar surface with sterile saline containing 0.05% w/v Polysorbate 80 (SS+) and the suspension was centrifuged at 2000 rpm for 15 minutes and resuspended in SS+. The suspension was diluted to approximately 10^8 CFU/ml.
[…] The samples were dispensed in 20 ml aliquots in sterile test tubes. For each concentration tested, a 0.1 ml aliquot of each inoculum was added to a final concentration of 10^5 to 10^6 CFU/ml. The tubes were incubated at room temperature and sampled on days 0, 1, 2, 4, 7, 14, 21 and 28.
At each sample point, 1.0 ml aliquots were withdrawn, serially diluted and plated in triplicate on TSA. The plates were incubated at 30-35° C. for 2-4 days. The colonies were counted and the average CFU/ml was calculated. Controls for purity, viability and sterility were performed as described previously.
According to the US Pharmacopoeia, a test compound is an effective preservative if the concentrations of viable bacteria remain at or below the initial concentrations during the first fourteen days and after 28 days.
Additionally, test organisms in Tables 9-11 were exposed to the 9-decenoic acid for several minutes before analysis at Day 0. As shown in the Tables 9-11, significant biocidal activity was observed even within this short time period for the test organisms, illustrating the effectiveness of 9-decenoic acid as a biocidal agent.

[2] = test system: Aspergillus flavus (ATCC 96045); experiment: MIC on Potato Dextrose Agar; conditions: PDA agar, 25-30° C.
Method: (§1) The efficacy of antimicrobial compositions in accordance with aspects of the invention against the following organisms was determined as follows. The following organisms were incubated in the presence of varying concentrations of 9-decenoic acid (9-DA) on an agar surface: Aspergillus parasiticus (ATCC 56857), Trichoderma virens (ATCC 9645), Aspergillus flavus (ATCC 96045), Cladosporium cladosporiodes (ATCC 16022), Aspergillus flavus (ATCC 5917), Aspergillus oryzae (ATCC 10124), Aspergillus parasiticus (ATCC 13539), Ulocladium atrum (ATCC 52426), Candida albicans (ATCC 11651), Aspergillus niger (ATCC 11414).
(§2) Fungal spores were hydrated in 0.1% Tween 80 and then plated onto Potato Dextrose Agar (PDA) (Difco # 213400; Becton, Dickinson and Company, Sparks, Md.) and incubated at 25-30° C. for six (6) days. The spores were washed from the surface with 5 ml of 0.1% Tween 80 and enumerated.
(§3) PDA plates were prepared according to the manufacturer's instructions through sterilization. The agar was tempered to approximately 50° C. and filter sterilized. Antimicrobial compositions containing 9-DA were added by percent weight to molten autoclaved PDA media, with consideration of specific gravity (0.915 g/mL for 9-DA) and purity (98% for 9-DA). The agar was thoroughly mixed and poured into sterile petri plates and allowed to solidify.
(§4) The agar plates were inoculated with the spore solution to achieve 10^2 spores/plate. The plates were incubated at 25-30° C. in Ziploc bags with a wet paper towel to keep the moisture level high. The plates were examined for growth at 1, 2, 3, 4, 8, 11, 15, 17, 23, 29 and 31 days. The percent coverage of growth on the agar surface was recorded at each sample point.

[3] = test system: Aspergillus niger (ATCC 11414); experiment: MIC on Potato Dextrose Agar; conditions: PDA agar, 25-30° C.
Method: as §1, §2, §3, §4

[4] = test system: Ulocladium atrum (ATCC 52426); experiment: MIC on Potato Dextrose Agar; conditions: PDA agar, 25-30° C.
Method: as §1, §2, §3, §4

[5] = test system: Aspergillus flavus (ATCC 5917); experiment: MIC on Potato Dextrose Agar; conditions: PDA agar, 25-30° C.
Method: as §1, §2, §3, §4

[6] = test system: Candida albicans (ATCC 11651); experiment: MIC on Potato Dextrose Agar; conditions: PDA agar, 25-30° C.
Method: as §1, §2, §3, §4

[7] = test system: Trichoderma virens (ATCC 9645); experiment: MIC on Potato Dextrose Agar; conditions: PDA agar, 25-30° C.
Method: as §1, §2, §3, §4

[8] = test system: Aspergillus oryzae (ATCC 10124); experiment: MIC on Potato Dextrose Agar; conditions: PDA agar, 25-30° C.
Method: as §1, §2, §3, §4

[9] = test system: Cladosporium cladosporiodes (ATCC 16022); experiment: MIC on Potato Dextrose Agar; conditions: PDA agar, 25-30° C.
Method: as §1, §2, §3, §4

[10] = test system: Aspergillus parasiticus (ATCC 13539); experiment: MIC on Potato Dextrose Agar; conditions: PDA agar, 25-30° C.
Method: as §1, §2, §3, §4

[11] = test system: Aspergillus parasiticus (ATCC 56857); experiment: MIC on Potato Dextrose Agar; conditions: PDA agar, 25-30° C.
Method: as §1, §2, §3, §4

## C=CCCCCCCCC(=O)O [9-decenoic acid]
[1]; 0.0078% 9-decenoic acid, exposure day 0
  Log reduction: 0 log
[1]; 0.0078% 9-decenoic acid, exposure day 1
  Log reduction: 0.67 log
[1]; 0.0078% 9-decenoic acid, exposure day 2
  Log reduction: 5.1 log
[1]; 0.0078% 9-decenoic acid, exposure day 4
  Log reduction: 5.1 log
[1]; 0.0078% 9-decenoic acid, exposure day 7
  Log reduction: 5.1 log
[1]; 0.0078% 9-decenoic acid, exposure day 14
  Log reduction: 5.1 log
[1]; 0.0078% 9-decenoic acid, exposure day 21
  Log reduction: 5.1 log
[1]; 0.0078% 9-decenoic acid, exposure day 28
  Log reduction: 5.1 log
[1]; 0.015% 9-decenoic acid, exposure day 0
  Log reduction: 2.8 log
[1]; 0.015% 9-decenoic acid, exposure day 1
  Log reduction: 5.1 log
[1]; 0.015% 9-decenoic acid, exposure day 2
  Log reduction: 5.1 log
[1]; 0.015% 9-decenoic acid, exposure day 4
  Log reduction: 5.1 log
[1]; 0.015% 9-decenoic acid, exposure day 7
  Log reduction: 5.1 log
[1]; 0.015% 9-decenoic acid, exposure day 14
  Log reduction: 5.1 log
[1]; 0.015% 9-decenoic acid, exposure day 21
  Log reduction: 5.1 log
[1]; 0.015% 9-decenoic acid, exposure day 28
  Log reduction: 5.1 log
[1]; 0.03% 9-decenoic acid, exposure day 0
  Log reduction: 5.1 log
[1]; 0.03% 9-decenoic acid, exposure day 1
  Log reduction: 5.1 log
[1]; 0.03% 9-decenoic acid, exposure day 2
  Log reduction: 5.1 log
[1]; 0.03% 9-decenoic acid, exposure day 4
  Log reduction: 5.1 log
[1]; 0.03% 9-decenoic acid, exposure day 7
  Log reduction: 5.1 log
[1]; 0.03% 9-decenoic acid, exposure day 14
  Log reduction: 5.1 log
[1]; 0.03% 9-decenoic acid, exposure day 21
  Log reduction: 5.1 log
[1]; 0.03% 9-decenoic acid, exposure day 28
  Log reduction: 5.1 log
[1]; US Pharmacopoeia definition, 28 days
  Concentration at which effective preservative: ≤ 0.0078%
[1]; at 0.0015%
  Exposure time at which bactericidal: 1 days
[1]; at 0.0078%
  Exposure time at which bactericidal: 2 days
[1]; for 0.003%
  Exposure time at which bactericidal: 0 days
[2]
  MIC: 0.05%
[3]
  MIC: 0.05%
[4]
  MIC: 0.025%
[5]
  MIC: 0.05%
[6]
  MIC: 0.025%
[7]
  MIC: 0.05%
[8]
  MIC: 0.05%
[9]
  MIC: 0.025%
[10]
  MIC: 0.05%
[11]
  MIC: 0.05%
